Assay results taken from ChEMBL document CHEMBL1201862, “PubChem BioAssay data set” (2004).
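Values below derive from 48-hour exposures of cells grown in 96-well plates, with endpoints linearly interpolated between the two concentrations bracketing the appropriate inhibition level. At the GI50, growth is halved.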 Calls of active or inactive are those of the source. Cut-off read from the data, not from the text of the source: active = GI50 up to about 1.1 µM and inactive = higher.

Legend:
Test in all cases: NCI-60 cell line screen, 48 h
786-0 = tested on: 786-0
A498 = tested on: A498
A549 = tested on: A549
ACHN = tested on: ACHN
CAKI-1 = tested on: CAKI-1
CCRF-CEM = tested on: CCRF-CEM
COLO 205 = tested on: COLO 205
DLD-1 = tested on: DLD-1
DMS-114 = tested on: DMS-114
DMS-273 = tested on: DMS-273
EKVX = tested on: EKVX
HCC 2998 = tested on: HCC 2998
HCT-116 = tested on: HCT-116
HCT-15 = tested on: HCT-15
HL-60 = tested on: HL-60
HOP-18 = tested on: HOP-18
HOP-62 = tested on: HOP-62
HOP-92 = tested on: HOP-92
HT-29 = tested on: HT-29
IGROV-1 = tested on: IGROV-1
K562 = tested on: K562
KM-20L2 = tested on: KM-20L2
KM12 = tested on: KM12
LOX IMVI = tested on: LOX IMVI
LXFL 529 = tested on: LXFL 529
M14 = tested on: M14
MOLT-4 = tested on: MOLT-4
Malme-3M = tested on: Malme-3M
NCI-H226 = tested on: NCI-H226
NCI-H23 = tested on: NCI-H23
NCI-H460 = tested on: NCI-H460
OVCAR-3 = tested on: OVCAR-3
OVCAR-4 = tested on: OVCAR-4
OVCAR-5 = tested on: OVCAR-5
OVCAR-8 = tested on: OVCAR-8
RPMI-8226 = tested on: RPMI-8226
RXF 393 = tested on: RXF 393
RXF 631 = tested on: RXF 631
SF-268 = tested on: SF-268
SF-295 = tested on: SF-295
SF-539 = tested on: SF-539
SK-MEL-28 = tested on: SK-MEL-28
SK-MEL-2 = tested on: SK-MEL-2
SK-MEL-5 = tested on: SK-MEL-5
SK-OV-3 = tested on: SK-OV-3
SN12C = tested on: SN12C
SNB-75 = tested on: SNB-75
SNB-78 = tested on: SNB-78
SR = tested on: SR
SW-620 = tested on: SW-620
TK-10 = tested on: TK-10
U-251 = tested on: U-251
UACC-257 = tested on: UACC-257
UACC-62 = tested on: UACC-62
UO-31 = tested on: UO-31
XF498 = tested on: XF498
DU-145 = tested on: DU-145
Hs-578T = tested on: Hs-578T
M19-MEL = tested on: M19-MEL
MCF7 = tested on: MCF7
MDA-MB-231 = tested on: MDA-MB-231
MDA-MB-435 = tested on: MDA-MB-435
MDA-N = tested on: MDA-N
NCI-H522 = tested on: NCI-H522
NCI/ADR-RES = tested on: NCI/ADR-RES
PC-3 = tested on: PC-3
SNB-19 = tested on: SNB-19
T47D = tested on: T47D

## Cc1ccc(/C=N/NS(=O)(=O)c2ccccc2)cc1
786-0
  GI50: > 100 µM (inactive)
A498
  GI50: > 100 µM (inactive)
A549
  GI50: > 100 µM (inactive)
ACHN
  GI50: > 100 µM (inactive)
CAKI-1
  GI50: > 100 µM (inactive)
CCRF-CEM
  GI50: > 100 µM (inactive)
COLO 205
  GI50: > 100 µM (inactive)
DLD-1
  GI50: > 100 µM (inactive)
DMS-114
  GI50: > 100 µM (inactive)
DMS-273
  GI50: > 100 µM (inactive)
EKVX
  GI50: > 100 µM (inactive)
HCC 2998
  GI50: > 100 µM (inactive)
HCT-116
  GI50: > 100 µM (inactive)
HCT-15
  GI50: > 100 µM
HL-60
  GI50: > 100 µM (inactive)
HOP-18
  GI50: > 100 µM (inactive)
HOP-62
  GI50: > 100 µM (inactive)
HOP-92
  GI50: > 100 µM (inactive)
HT-29
  GI50: > 100 µM (inactive)
IGROV-1
  GI50: > 100 µM (inactive)
K562
  GI50: > 100 µM (inactive)
KM-20L2
  GI50: > 100 µM (inactive)
KM12
  GI50: > 100 µM (inactive)
LOX IMVI
  GI50: > 100 µM (inactive)
LXFL 529
  GI50: > 100 µM (inactive)
M14
  GI50: > 100 µM (inactive)
MOLT-4
  GI50: > 100 µM (inactive)
Malme-3M
  GI50: > 100 µM (inactive)
NCI-H226
  GI50: > 100 µM (inactive)
NCI-H23
  GI50: > 100 µM (inactive)
NCI-H460
  GI50: > 100 µM (inactive)
OVCAR-3
  GI50: > 100 µM (inactive)
OVCAR-4
  GI50: > 100 µM (inactive)
OVCAR-5
  GI50: > 100 µM (inactive)
OVCAR-8
  GI50: > 100 µM (inactive)
RPMI-8226
  GI50: > 100 µM (inactive)
RXF 393
  GI50: > 100 µM (inactive)
RXF 631
  GI50: > 100 µM (inactive)
SF-268
  GI50: > 100 µM (inactive)
SF-295
  GI50: 74 µM (inactive)
SF-539
  GI50: > 100 µM (inactive)
SK-MEL-28
  GI50: > 100 µM (inactive)
SK-MEL-2
  GI50: > 100 µM (inactive)
SK-MEL-5
  GI50: > 100 µM (inactive)
SK-OV-3
  GI50: > 100 µM (inactive)
SN12C
  GI50: > 100 µM (inactive)
SNB-75
  GI50: > 100 µM (inactive)
SNB-78
  GI50: > 100 µM (inactive)
SR
  GI50: > 100 µM (inactive)
SW-620
  GI50: > 100 µM (inactive)
TK-10
  GI50: > 100 µM (inactive)
U-251
  GI50: > 100 µM (inactive)
UACC-257
  GI50: > 100 µM (inactive)
UACC-62
  GI50: > 100 µM (inactive)
UO-31
  GI50: > 100 µM (inactive)
XF498
  GI50: > 100 µM (inactive)

## C=C1C(=O)C23CC1CCC2C12CO[C@@]3(O)[C@@H](O)C1C(C)(C)C=CC2=O (stereo partly drawn)
786-0
  GI50: 0.653 µM (active)
A498
  GI50: > 10 µM (inactive)
A549
  GI50: 2.03 µM (inactive)
ACHN
  GI50: 0.774 µM (active)
CAKI-1
  GI50: 2.44 µM (inactive)
CCRF-CEM
  GI50: 0.313 µM (active)
COLO 205
  GI50: 0.714 µM (active)
DLD-1
  GI50: 0.721 µM (active)
DMS-273
  GI50: 0.568 µM (active)
DU-145
  GI50: 23.4 µM (inactive)
EKVX
  GI50: 5.26 µM (inactive)
HCC 2998
  GI50: 1.15 µM (inactive)
HCT-116
  GI50: 0.488 µM (active)
HCT-15
  GI50: 0.838 µM
HL-60
  GI50: 0.143 µM (active)
HOP-18
  GI50: 1.19 µM (inactive)
HOP-62
  GI50: 7.41 µM (inactive)
HOP-92
  GI50: 0.785 µM (active)
HT-29
  GI50: 0.234 µM (active)
Hs-578T
  GI50: 31.6 µM (inactive)
IGROV-1
  GI50: 3.94 µM (inactive)
K562
  GI50: 1.53 µM (inactive)
KM-20L2
  GI50: 1.44 µM (inactive)
KM12
  GI50: 14.6 µM (inactive)
LOX IMVI
  GI50: 3.63 µM (inactive)
M14
  GI50: 2.75 µM (inactive)
M19-MEL
  GI50: 0.824 µM (active)
MCF7
  GI50: 2.44 µM (inactive)
MDA-MB-231
  GI50: 3.85 µM (inactive)
MDA-MB-435
  GI50: 3.78 µM (inactive)
MDA-N
  GI50: 2.98 µM (inactive)
MOLT-4
  GI50: 0.281 µM (active)
Malme-3M
  GI50: 0.755 µM (active)
NCI-H226
  GI50: 6.44 µM (inactive)
NCI-H23
  GI50: 0.752 µM (active)
NCI-H460
  GI50: 0.713 µM (active)
NCI-H522
  GI50: 1.24 µM (inactive)
NCI/ADR-RES
  GI50: 9.31 µM (inactive)
OVCAR-3
  GI50: 1.11 µM (active)
OVCAR-5
  GI50: 4.76 µM (inactive)
OVCAR-8
  GI50: 0.16 µM (active)
PC-3
  GI50: 2.74 µM (inactive)
RPMI-8226
  GI50: 0.75 µM (active)
RXF 393
  GI50: 0.728 µM (active)
RXF 631
  GI50: 1.03 µM (active)
SF-268
  GI50: 1.65 µM (inactive)
SF-295
  GI50: 1.48 µM (inactive)
SF-539
  GI50: 0.861 µM (active)
SK-MEL-28
  GI50: 0.738 µM (active)
SK-MEL-2
  GI50: 0.925 µM (active)
SK-MEL-5
  GI50: 6.65 µM (inactive)
SK-OV-3
  GI50: 7.53 µM (inactive)
SN12C
  GI50: 1.15 µM (inactive)
SNB-19
  GI50: 1.41 µM (inactive)
SNB-75
  GI50: 6.03 µM (inactive)
SNB-78
  GI50: 0.718 µM (active)
SR
  GI50: 0.186 µM (active)
SW-620
  GI50: 2.93 µM (inactive)
T47D
  GI50: 5.38 µM (inactive)
TK-10
  GI50: 0.893 µM (active)
U-251
  GI50: 1.49 µM (inactive)
UACC-257
  GI50: 0.684 µM (active)
UACC-62
  GI50: 0.989 µM (active)
UO-31
  GI50: 1.73 µM (inactive)
XF498
  GI50: 0.791 µM (active)

## O=C(c1ccccc1)C(c1ccccc1)C1(O)C(=O)Nc2c(Cl)cc(Cl)cc21 (stereo not drawn)
786-0
  GI50: 14.7 µM (inactive)
A549
  GI50: 18.9 µM (inactive)
ACHN
  GI50: 17.1 µM (inactive)
CAKI-1
  GI50: 17.4 µM (inactive)
CCRF-CEM
  GI50: 14 µM (inactive)
COLO 205
  GI50: 19.1 µM (inactive)
DLD-1
  GI50: 17.7 µM (inactive)
DMS-114
  GI50: 16.5 µM (inactive)
DMS-273
  GI50: 27.4 µM (inactive)
EKVX
  GI50: 14.2 µM (inactive)
HCC 2998
  GI50: 16.3 µM (inactive)
HCT-15
  GI50: 39.4 µM
HL-60
  GI50: 12.6 µM (inactive)
HOP-18
  GI50: 14.9 µM (inactive)
HOP-62
  GI50: > 10 µM (inactive)
HOP-92
  GI50: 18.9 µM (inactive)
HT-29
  GI50: 23.9 µM (inactive)
K562
  GI50: 15.5 µM (inactive)
KM-20L2
  GI50: 36.8 µM (inactive)
KM12
  GI50: 23 µM (inactive)
LOX IMVI
  GI50: 19.5 µM (inactive)
LXFL 529
  GI50: 11.4 µM (inactive)
M14
  GI50: 17.9 µM (inactive)
MOLT-4
  GI50: 20.3 µM (inactive)
Malme-3M
  GI50: 18.6 µM (inactive)
NCI-H226
  GI50: 16.7 µM (inactive)
NCI-H23
  GI50: 18 µM (inactive)
NCI-H460
  GI50: 28.2 µM (inactive)
NCI-H522
  GI50: 16.6 µM (inactive)
OVCAR-3
  GI50: 26 µM (inactive)
OVCAR-4
  GI50: 13.7 µM (inactive)
OVCAR-5
  GI50: 17.1 µM (inactive)
OVCAR-8
  GI50: 16.1 µM (inactive)
RPMI-8226
  GI50: 8.34 µM (inactive)
RXF 393
  GI50: 19.1 µM (inactive)
RXF 631
  GI50: 18.9 µM (inactive)
SF-268
  GI50: 21.2 µM (inactive)
SF-295
  GI50: 17.7 µM (inactive)
SK-MEL-28
  GI50: 18.9 µM (inactive)
SK-MEL-2
  GI50: 16.8 µM (inactive)
SK-MEL-5
  GI50: 15.8 µM (inactive)
SK-OV-3
  GI50: 30.2 µM (inactive)
SN12C
  GI50: > 100 µM (inactive)
SNB-19
  GI50: 21.7 µM (inactive)
SNB-75
  GI50: 15.3 µM (inactive)
SNB-78
  GI50: 24.7 µM (inactive)
SW-620
  GI50: 14.4 µM (inactive)
TK-10
  GI50: 18.3 µM (inactive)
U-251
  GI50: 26.2 µM (inactive)
UACC-257
  GI50: 18.6 µM (inactive)
UO-31
  GI50: 18.9 µM (inactive)
XF498
  GI50: > 100 µM (inactive)
